{"source": "patent US7101533B2", "about": "“Agent for inducing receptor potential” (Kabushiki Kaisha Hayashibara Seibutsu Kagaku Kenkyujo, priority 2002, dated 2006)", "tested_on": "retinal nerve cells", "assay": "intracellular calcium experimental method in cultured chick embryo retinal cells with photostimulation (Fluo-4 fluorescence and intracellular potential)", "assay_type": "cell-based", "from_the_text": "All the above polymethine organic dye compounds can be obtained in the desired amount either by the method disclosed in “Kanko-Shikiso” (Photosynthetic Dyes), pp. 11–31, edited by Masaaki Hayami, published by Sangyo Tosho Publisher on Oct. 17, 1997; or in accordance therewith. In case the compounds are commercially available, they can be optionally purified prior to use. Evaluation of whether organic dye compounds evoke receptor potential in response to photostimulation in the optic nerve can be determined in accordance with the intracellular calcium experiment method disclosed in “Jikken-Igaku” (Experimental Medicine), Vol. 7, No. 6, edited by Hideaki Karaki et al., published on Apr. 5, 1989 by Yodosha, Co., Ltd., Tokyo, Japan, with a modification that an organic dye compound to be tested coexists in animal retinal cells cultured in a nutrient culture medium containing a fluorescent calcium indicator, followed by detecting the intensity of fluorescence emitted from the indicator or of the electric potential generated intracellularly. […]\nThereafter, Fluo-4 acetoxymethyl ester, commercialized by Molecular Probe, Oregon, U.S.A., a fluorescent calcium indicator, was added to each well of the culture plates to give a concentration of 10 μM, incubated at 37° C. for 30 min, and further incubated for another 30 min similarly as above except for omitting Fluo-4 acetoxymethyl ester. […] The organic dye compounds in Table 1 were respectively dissolved in dimethylsulfoxide and irradiated with a light having a wavelength of 470 to 490 nm to excite Fluo-4 acetoxymethyl ester before or after being added to each culture in each well to give a concentration of 0.0005 to 0.5 μg/ml, followed by detecting the intensity of fluorescence and the intracellular potential at a wavelength of around 510 to 550 nm emitted from the excited Fluo-4 acetoxymethyl ester. […]", "data": [{"smiles": "CCCC1=NN(c2ccc(S(=O)(=O)[O-])cc2)C(=O)C1=CC=C(C=Cc1c(CCC)nn(-c2ccc(S(=O)(=O)[O-])cc2)c1[O-])c1ccccc1.[Na+].[Na+].[Na+]", "note": "[Chemical Formula 14]", "values": [{"measurement": "Fluorescent intensity With calcicludine", "setting": "as above, with 2.5 μM of calcicludine (antagonist of L-, N-, P-type high-threshold calcium channels)", "value": "Unchanged"}, {"measurement": "Fluorescent intensity Without calcicludine", "setting": "chick embryo retinal nerve cells loaded with Fluo-4 acetoxymethyl ester, dye 0.0005 to 0.5 μg/ml, light 470 to 490 nm, emission around 510 to 550 nm, no calcicludine", "value": "Increased"}, {"measurement": "Intracellular potential", "setting": "receptor potential observed as intracellular potential, dye 0.0005 to 0.5 μg/ml, light 470 to 490 nm, absence of calcicludine", "value": "Detected"}]}]}
